Test results: US8916502B2, “Agent for improving lawn grass qualities” (Cosmo Oil Co., Ltd., priority 2008, dated 2014)

Key:
[1] = tested on: Zoysia tenuifolia; test: Foliage treatment of Zoysia tenuifolia sod in pots: grass height and dry weight of shoots and stems; format: in vivo; details: foliage treatment 150 L/10 a; for Grass height: 26 days after treatment; for Dry weight of stems: harvested 4 months after treatment
Experimental: A commercially available Zoysia tenuifolia sod was cut to a size of 10×10 cm. Uniform volcanic ash soil (andosol) was introduced into a vessel (1/44,444×10 a) in a sufficient amount per pot, and a chemical fertilizer (N—P—K=8-8-8) was applied thereon in an amount, in terms of nitrogen, of 2.6 kg-N/10 a. The cut Zoysia tenuifolia sod was transplanted into the pot. […] The grass height was measured 26 days after the treatment, and thereby the dwarfing effect was investigated.

[2] = tested on: bentgrass; test: Foliage treatment of bentgrass sod in pots: leaf count and L*a*b* colour; format: in vivo; details: 30 days after treatment, 5-aminolevulinic acid hydrochloride 200 mg/10 a and/or prohexadione calcium salt 12.5 g/10 a; for Color system L* / Color system b* / Color system a*: colorimeter; for Color system a*: more negative = greener; for Plant count of lawn grass: foliage treatment 150 L/10 a
Description: A commercially available bentgrass sod was cut into a circular form having a diameter of 10 cm. Uniform volcanic ash soil (andosol) was introduced into a vessel (1/17,500×10 a) in a sufficient amount per pot, and a liquid fertilizer (Hyponica) was applied thereon in an amount, in terms of nitrogen, of 3 kg-N/10 a. The cut bentgrass sod was transplanted into the pot.

[3] = 5-aminolevulinic acid hydrochloride 600 mg/10 a and/or paclobutrazol 36 g/10 a
[4] = 5-aminolevulinic acid hydrochloride 600 mg/10 a and/or flurprimidol 84 g/10 a
[5] = 5-aminolevulinic acid hydrochloride 600 mg/10 a and/or prohexadione calcium salt 20 g/10 a
[6] = 5-aminolevulinic acid hydrochloride 600 mg/10 a and/or trinexapac-ethyl 20 g/10 a

SMILES	Dry weight of shoots [1, 3] [g]	Grass height [1, 3] [cm]	Dry weight of stems [1, 3] [g]	Color system L* [2]	Color system b* [2]	Color system a* [2]	Plant count of lawn grass [2] [plants/9 cm^2]	Dry weight of shoots [1, 4] [g]	Dry weight of shoots [1, 5] [g]	Dry weight of shoots [1, 6] [g]	Grass height [1, 4] [cm]	Grass height [1, 5] [cm]	Grass height [1, 6] [cm]	Dry weight of stems [1, 4] [g]	Dry weight of stems [1, 5] [g]	Dry weight of stems [1, 6] [g]
CC(C)(C)[C@@H](O)[C@@H](Cc1ccc(Cl)cc1)n1cncn1 (racemic) [paclobutrazol, (2RS,3RS)-1-(4-chlorophenyl)-4,4-dimethyl-2-(1H-1,2,4-triazol-1-yl)pentan-3-ol]	0.81	3.5	14.8	–	–	–	–	–	–	–	–	–	–	–	–	–
Cl.NCC(=O)CCC(=O)O [5-aminolevulinic acid hydrochloride]	0.90	4.2	12.0	34.0	17.6	−8.8	54.2	0.90	0.90	0.90	4.2	4.2	4.2	12.0	12.0	12.0
CCC(=O)C1=C([O-])CC(C(=O)[O-])CC1=O.[Ca+2] (centres unmarked) [Prohexadione calcium salt, calcium 3-oxido-5-oxo-4-propionyl-3-cyclohexene carboxylate]	–	–	–	33.2	17.0	−8.9	65.5	–	0.72	–	–	3.5	–	–	11.3	–
CCOC(=O)C1CC(=O)C(=C(O)C2CC2)C(=O)C1 (stereo not drawn) [Trinexapac-ethyl, ethyl=4-cyclopropyl-α-hydroxymethylene)-3,5-dioxocyclohexane carboxylate]	–	–	–	–	–	–	–	–	–	0.44	–	–	3.5	–	–	12.8
